The text below walks through data of US20230286973A1, “PROTEIN SECRETION INHIBITORS” (KEZAR LIFE SCIENCES, priority 2020, published 2023).

The structures appear in SMILES notation. Like-named read-outs stand apart in the source and are kept apart here.

For orientation: EC50 means the concentration at which the effect is half-maximal.

Data set [1] relates to HER3-ss+4aa/Gaussia Luciferase. Put plainly: Dox-Induced Her3-ss-Gluc Assay. Conditions: 24 hr Dox induction, 293FRT/TO cells, read-out: 24 hr Dox Inducible Her3(ss + 4)Gluc 293FRT/TO: Mean IC50. The class given is cell-based. Put shortly: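 Cells were seeded a day ahead, then given compound diluted in DMSO/media with doxycycline to induce expression of the HER3 signal sequence (+4 aa)–Gaussia luciferase fusion. Incubation was at 37° C., 5% CO2, in a stable Flp-In 293 T-REx line.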

Data set [2] in a line: Liver Microsome Stability Assay (mouse). Conditions: mouse liver microsomes, with NADPH, 1.0 uM compound.
Procedure: (§1) Stability of a compound was assessed in the presence of liver microsomes from various sources—mouse, rat, monkey and human liver microsomes. 1.0 uM compound, 0.4% DMSO in 0.1 M Potassium Phosphate with 1.0 mg/mL liver microsomes, were incubated at 37° C. with or without 1 mM NADPH. The samples were quenched at 0, and 30 minutes.
Data set [3] concerns multiple myeloma cell line NCI-H929. Put plainly: H929 Cell Viability Assay. It counts as cell-based, human. The note with it: Homo sapiens, NCI-H929, 48 h, NCI-H929 cells, Celltiter-Glo. Put shortly:
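Luminescent ATP detection (CellTiter-Glo) after 48 hours of compound exposure measures viability. Cells were plated in RPMI 1640 containing 10% fetal bovine serum and kept at 37° C under 5% CO2.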
(In general: ATP-based viability assays read luminescence as a measure of living cells.)

A short description of data set [4]: Liver Microsome Stability Assay (rat). The note with it: rat liver microsomes, with NADPH, 1.0 uM compound. Background: Microsomes from liver hold many membrane-bound enzymes, among them those of drug oxidation.
Procedure: as §1
A short description of data set [5]: Liver Microsome Stability Assay (monkey). The note with it: monkey liver microsomes, with NADPH, 1.0 uM compound.
Procedure: as §1
Data set [6] deals with multiple myeloma cell line U266B1. Put plainly: U266 Cell Viability Assay. The note with it: Homo sapiens, U-266, 48 h, U266B1 cells, Celltiter-Glo. The class given is cell-based, human. The procedure, abridged: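 Steps: culture in RPMI 1640 plus 10% FBS and 2 mM glutamine; plate and add compound dilutions; incubate 48 hours at 37° C., 5% CO2; add CellTiter-Glo and quantify luciferase signal.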

Data set [7] is described as follows: Liver Microsome Stability Assay (human). The note with it: human liver microsomes, with NADPH, 1.0 uM compound.
Procedure: as §1
The test system of data set [8] is IL-2-FL/Gaussia Luciferase. Put plainly: Dox Induced IL2-FL-Gluc Assay. Conditions: for IC50: 24 hr Dox induction, 293FRT/TO cells, read-out: 24 hr Dox Inducible IL2FLGluc 293FRT/TO: Mean IC50; for 24 hr Dox Inducible IL2FLGluc 293FRT/TO: IL2/PD1: ratio of IL2FLGluc IC50 to PD1ssGluc IC50. It counts as cell-based. The procedure, abridged: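 Cells are plated one day ahead, then receive compound dilutions in DMSO/media with doxycycline and incubate at 37° C, 5% CO2. They are Flp-In 293 T-REx cells expressing a full-length IL-2 (amino acids 1-153)–Gaussia luciferase fusion under T-REx control.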

Data set [9] concerns PD1-ss+10aa/Gaussia Luciferase. Nature of the data set: Dox-Induced PD1-ss-Gluc Assay. Conditions: 24 hr Dox induction, 293FRT/TO cells, read-out: 24 hr Dox Inducible PD1ssGluc 293FRT/TO: Mean IC50. The class given is cell-based. Put shortly: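 Flp-In 293 T-REx, stable line; Tet-regulated PD1-ss+10aa fused to Gaussia luciferase; plated day prior; cpd + doxycycline in DMSO/media; 37 °C, 5% CO2.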

Data set [10] concerns TNFα-FL/Gaussia Luciferase. Nature of the data set: Dox Induced TNFα-FL-Gluc Assay. The class given is cell-based. The note with it: for IC50: 24 hr Dox induction, 293FRT/TO cells, read-out: 24 hr Dox Inducible TNFaFLGluc 293FRT/TO: Mean IC50; for 24 hr Dox Inducible TNFaFLGluc 293FRT/TO: TNF/PD1: ratio of TNFaFLGluc IC50 to PD1ssGluc IC50. The procedure, abridged: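 Stereoisomer mixtures were tested where stereochemistry is not drawn. Induction used doxycycline added together with compound dilutions in DMSO/media to Flp-In 293 T-REx cells carrying a T-REx-regulated TNFα (aa 1-233)-Gaussia luciferase construct, then incubated at 37 °C, 5% CO2.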

Setting [11] is: '<=>' given where both are I.A.

As for `O=C(Nc1nc(/C=C/C2CCc3ccccc3N2)cs1)c1cccn1Cc1ccncc1` (stereo not drawn) [Compound B7, (E)-1-(pyridin-4-ylmethyl)-N-(4-(2-(1,2,3,4-tetrahydroquinolin-2-yl)vinyl)thiazol-2-yl)-1H-pyrrole-2-carboxamide], the IC50 in [1] was 800 nM; in data set [8] it was 1270 nM; in data set [9] it was 330 nM; in data set [10], 7870 nM. Besides, the “Liver Microsome Stability (Multiple Species): Mouse - % Remaining after 30 min w/NADPH” value in [2] is 12.3%. Moreover, the EC50 in data set [3] stood at 21900 nM; in data set [6] it was 21400 nM. Also, the “Liver Microsome Stability (Multiple Species): Rat - % Remaining after 30 min w/NADPH” value in data set [4] was 2.33%. In addition, the “Liver Microsome Stability (Multiple Species): Monkey - % Remaining after 30 min w/NADPH” value in [5] amounted to 0.74%. Also, the “Liver Microsome Stability (Multiple Species): Human - % Remaining after 30 min w/NADPH” value in data set [7] came to 1.32%. The “24 hr Dox Inducible IL2FLGluc 293FRT/TO: IL2/PD1” value in [8] worked out at 3.8. Also, the “24 hr Dox Inducible TNFaFLGluc 293FRT/TO: TNF/PD1” value in data set [10] turned out to be 23.9.

As to `CC(=O)N1CCC(Oc2c(F)cc(N3CCC[C@@H]3c3csc(NC(=O)c4cccn4Cc4ccnc(F)c4)n3)cc2F)CC1` [Compound A106, (R)-N-(4-(1-(4-((1-acetylpiperidin-4-yl)oxy)-3,5-difluorophenyl)pyrrolidin-2-yl)thiazol-2-yl)-1-((2-fluoropyridin-4-yl)methyl)-1H-pyrrole-2-carboxamide], the IC50 in data set [1] came to 15.6 nM; in [8], 26.2 nM; in data set [9] it was 16.3 nM; in [10], 120 nM. Moreover, the “Liver Microsome Stability (Multiple Species): Mouse - % Remaining after 30 min w/NADPH” value in data set [2] worked out at 1.43%. For the same compound, the EC50 in [3] is 472 nM; in data set [6], over 25000 nM. The “Liver Microsome Stability (Multiple Species): Rat - % Remaining after 30 min w/NADPH” value in [4] came to 3.12%. In addition, the “Liver Microsome Stability (Multiple Species): Monkey - % Remaining after 30 min w/NADPH” value in data set [5] is reported as 0.35%. Also, the “Liver Microsome Stability (Multiple Species): Human - % Remaining after 30 min w/NADPH” value in data set [7] is 2.95%. The “24 hr Dox Inducible IL2FLGluc 293FRT/TO: IL2/PD1” value in data set [8] is on record as 1.6. Besides, in data set [10], the “24 hr Dox Inducible TNFaFLGluc 293FRT/TO: TNF/PD1” value was 7.32.

As to `O=C(Nc1nc([C@H]2CCCN2c2ccc(C3CCNCC3)cc2)cs1)c1cccn1Cc1ccncc1` [Compound A51, (R)-N-(4-(1-(4-(piperidin-4-yl)phenyl)pyrrolidin-2-yl)thiazol-2-yl)-1-(pyridin-4-ylmethyl)-1H-pyrrole-2-carboxamide], the IC50 in [1] turned out to be 917 nM; in data set [8] it was 1040 nM; in data set [9], 529 nM; in data set [10], 19300 nM. In addition, the “Liver Microsome Stability (Multiple Species): Mouse - % Remaining after 30 min w/NADPH” value in [2] is 64.3%. Further, the EC50 in data set [3] is 4950 nM; in data set [6], 6060 nM. In addition, the “Liver Microsome Stability (Multiple Species): Rat - % Remaining after 30 min w/NADPH” value in [4] is on record as 0.4%. Besides, the “Liver Microsome Stability (Multiple Species): Monkey - % Remaining after 30 min w/NADPH” value in data set [5] came to 1.91%. The “Liver Microsome Stability (Multiple Species): Human - % Remaining after 30 min w/NADPH” value in [7] was 2.67%. Also, the “24 hr Dox Inducible IL2FLGluc 293FRT/TO: IL2/PD1” value in [8] stood at 2. In addition, the “24 hr Dox Inducible TNFaFLGluc 293FRT/TO: TNF/PD1” value in data set [10] worked out at 36.5.

For `C[C@H](CC#N)Cn1cccc1C(=O)Nc1nc([C@H]2CCCN2c2ccccc2)cs1` [Compound C88, 1-((R)-3-cyano-2-methylpropyl)-N-(4-((R)-1-phenylpyrrolidin-2-yl)thiazol-2-yl)-1H-pyrrole-2-carboxamide], the IC50 in data set [1] (mean) was determined as 942 nM; in [8] (mean), 1900 nM; in data set [9] (mean) it was 581 nM; in data set [10] (mean) it was 5930 nM. Besides, the “Liver Microsome Stability (Multiple Species): Mouse - % Remaining after 30 min w/NADPH” value in data set [2] is recorded as 14.8%. Also, the EC50 in data set [3] was 21800 nM; in data set [6], over 25000 nM. In data set [4], the “Liver Microsome Stability (Multiple Species): Rat - % Remaining after 30 min w/NADPH” value amounted to 5.31%. Further, the “Liver Microsome Stability (Multiple Species): Monkey - % Remaining after 30 min w/NADPH” value in [5] is 1.91%. The “Liver Microsome Stability (Multiple Species): Human - % Remaining after 30 min w/NADPH” value in data set [7] stood at 15.7%. For the same compound, in data set [8] (setting [11]), the “24 hr Dox Inducible IL2FLGluc 293FRT/TO: IL2/PD1” value is reported as 3.3. Further, the “24 hr Dox Inducible TNFaFLGluc 293FRT/TO: TNF/PD1” value in data set [10] (setting [11]) is 10.2.

As for `[2H]c1cc([2H])cc(N2CCC[C@@H]2c2csc(NC(=O)c3cccn3Cc3ccnc(F)c3)n2)c1` [Compound A95, (R)-1-((2-fluoropyridin-4-yl)methyl)-N-(4-(1-(phenyl-3,5-d2)pyrrolidin-2-yl)thiazol-2-yl)-1H-pyrrole-2-carboxamide], the IC50 in data set [1] came to 14.8 nM; in data set [8], 18.6 nM; in data set [9], 8.34 nM; in [10] it was 133 nM. For the same compound, the “Liver Microsome Stability (Multiple Species): Mouse - % Remaining after 30 min w/NADPH” value in [2] came to 10.2%. Also, the figures for the EC50 in data set [3] and in [6] were 590 nM and over 25000 nM, respectively. Moreover, the “Liver Microsome Stability (Multiple Species): Rat - % Remaining after 30 min w/NADPH” value in [4] is 13.9%. In data set [5], the “Liver Microsome Stability (Multiple Species): Monkey - % Remaining after 30 min w/NADPH” value is on record as 0.88%. In addition, the “Liver Microsome Stability (Multiple Species): Human - % Remaining after 30 min w/NADPH” value in [7] is reported as 8.25%. In addition, in data set [8], the “24 hr Dox Inducible IL2FLGluc 293FRT/TO: IL2/PD1” value amounted to 2.2. Moreover, in data set [10], the “24 hr Dox Inducible TNFaFLGluc 293FRT/TO: TNF/PD1” value is listed as 15.9.

For `COC(=O)Nc1ccc(N2CCC[C@@H]2c2csc(NC(=O)c3cc(C)cn3Cc3ccnc(F)c3)n2)nc1` [Compound A180, methyl (R)-(6-(2-(2-(1-((2-fluoropyridin-4-yl)methyl)-4-methyl-1H-pyrrole-2-carboxamido)thiazol-4-yl)pyrrolidin-1-yl)pyridin-3-yl)carbamate], the IC50 turned out to be 3.7 nM in [1], 14.3 nM in data set [8], 4.95 nM in data set [9] and 49.8 nM in data set [10]. Also, the “Liver Microsome Stability (Multiple Species): Mouse - % Remaining after 30 min w/NADPH” value in data set [2] is listed as 14.4%. The EC50 is 715 nM in data set [3] and over 25000 nM in data set [6]. In addition, the “Liver Microsome Stability (Multiple Species): Rat - % Remaining after 30 min w/NADPH” value in [4] was 3.14%. Further, the “Liver Microsome Stability (Multiple Species): Monkey - % Remaining after 30 min w/NADPH” value in [5] is given as 7.35%. Further, the “Liver Microsome Stability (Multiple Species): Human - % Remaining after 30 min w/NADPH” value in [7] is on record as 8.99%. For the same compound, the “24 hr Dox Inducible IL2FLGluc 293FRT/TO: IL2/PD1” value in data set [8] is 52.35. Besides, the “24 hr Dox Inducible TNFaFLGluc 293FRT/TO: TNF/PD1” value in data set [10] is listed as 440.37.

Take `COC(=O)Cn1cnc(/C=C/c2csc(NC(=O)c3cccn3Cc3ccnc(F)c3)n2)c1C` [Compound B120, methyl (E)-2-(4-(2-(2-(1-((2-fluoropyridin-4-yl)methyl)-1H-pyrrole-2-carboxamido)thiazol-4-yl)vinyl)-5-methyl-1H-imidazol-1-yl)acetate]: the IC50 was over 25000 nM in data set [1] (mean), over 25000 nM in data set [8] (mean), 2690 nM in [9] (mean) and over 25000 nM in [10] (mean). The “Liver Microsome Stability (Multiple Species): Mouse - % Remaining after 30 min w/NADPH” value in [2] was 6.6%. The EC50 in data set [3] and in data set [6] was over 25000 nM each time. In addition, in data set [4], the “Liver Microsome Stability (Multiple Species): Rat - % Remaining after 30 min w/NADPH” value is 2.69%. In data set [5], the “Liver Microsome Stability (Multiple Species): Monkey - % Remaining after 30 min w/NADPH” value is reported as 0.15%. Also, the “Liver Microsome Stability (Multiple Species): Human - % Remaining after 30 min w/NADPH” value in [7] was 0.24%. In addition, the “24 hr Dox Inducible IL2FLGluc 293FRT/TO: IL2/PD1” value in data set [8] (setting [11]) was over 9.3. In addition, the “24 hr Dox Inducible TNFaFLGluc 293FRT/TO: TNF/PD1” value in [10] (setting [11]) is over 9.29.
